Assay results taken from patent publication US7754868B2, “Nucleic acid encoding two-component sensing and regulatory proteins, antimicrobial proteins and uses therefor” (North Carolina State University, priority 2004, dated 2010).
Entries after “also recorded” stand apart in the source; their conditions may differ.

Columns and labels:
[1] = system: L. acidophilus NCFM LBA1430 HPK mutant; assay: Growth curves with 0.3% of individual bile salts; format: cell-based, Lactobacillus acidophilus; conditions: 0.3% bile salt
Procedure: Growth curve experiments were also performed using 0.3% of individual bile salts: taurocholic acid, taurodeoxycholic acid, taurochenodeoxycholic acid, glycocholic acid, glycodeoxycholic acid.

[2] = system: L. acidophilus control NCK1398 (NCFM::lacL); conditions: 20% ethanol, after 90 min, log-phase cells
Procedure: (§1) Log phase cells at an A600 of 0.25-0.3 (pH>5.8) from a 2% inoculum in MRS broth were centrifuged and resuspended in the same volume of NMS, or MRS containing 15 or 20% (v/v) ethanol. CFU/ml were determined at 30 minutes intervals by serial dilutions in 10% MRS and enumeration on MRS agar as described above.

[3] = system: L. acidophilus HPK mutant (NCK1686); conditions: log-phase cells
Procedure: as §1

SMILES | effect on growth of the HPK mutant compared to wild type [1] | reduction in survival [2] [log] | survival, HPK mutant versus control ([3]; 15% (v/v) ethanol) | reduction in survival ([3]; 20% ethanol, after 90 min) [log]
C[C@H](CCC(=O)NCCS(=O)(=O)O)[C@H]1CC[C@H]2[C@@H]3CC[C@@H]4C[C@H](O)CC[C@]4(C)[C@H]3C[C@H](O)[C@]12C [Sodium taurodeoxycholate] | the only salt that affected the growth of the HPK mutant; also recorded: more inhibitory effect on the growth of the HPK mutant than other salts tested |  |  | 
CCO [ethanol] |  | 1 | No differences were observed | 4
